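Test compounds were applied to cells in 96-well plates for 48 hours at 5 doses. TGI denotes the concentration required for complete inhibition of growth.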
Experiments:
Experiment in all cases: NCI tumour cell line growth inhibition, 48 h
[1] = system: A498 renal
[2] = system: DU-145 prostate
[3] = system: HCT-15 colon
[4] = system: HL-60(TB) leukemia
[5] = system: HT29 colon
[6] = system: IGROV1 ovarian
[7] = system: LOX IMVI melanoma
[8] = system: M14 melanoma
[9] = system: MALME-3M melanoma
[10] = system: MDA-N
[11] = system: NCI/ADR-RES ovarian
[12] = system: OVCAR-8 ovarian
[13] = system: PC-3 prostate
[14] = system: RXF 393 renal
[15] = system: SF-268 CNS
[16] = system: SK-MEL-2 melanoma
[17] = system: SK-OV-3 ovarian
[18] = system: SNB-75 CNS
[19] = system: U251 CNS
[20] = system: UO-31 renal

| Compound | TGI [1] [µM] | TGI [2] [µM] | TGI [3] [µM] | TGI [4] [µM] | TGI [5] [µM] | TGI [6] [µM] | TGI [7] [µM] | TGI [8] [µM] | TGI [9] [µM] | TGI [10] [µM] | TGI [11] [µM] | TGI [12] [µM] | TGI [13] [µM] | TGI [14] [µM] | TGI [15] [µM] | TGI [16] [µM] | TGI [17] [µM] | TGI [18] [µM] | TGI [19] [µM] | TGI [20] [µM] |
| --- | --- | --- | --- | --- | --- | --- | --- | --- | --- | --- | --- | --- | --- | --- | --- | --- | --- | --- | --- | --- |
| CC(=O)OC12c3ccccc3-c3ccccc3C1C(C(=O)O)C2(Cl)C(=O)O (configuration not stated) | > 10 | > 10 | > 10 | > 10 | > 10 | > 10 | > 10 | > 10 | > 10 | > 10 | > 10 | > 10 | > 10 | > 10 | > 10 | > 10 | > 10 | > 10 | > 10 | > 10 |
| O=[N+]1ON=C(c2ccccc2)C1=C1C(c2c(-c3ccccc3)no[n+]2[O-])=NON1[O-] | 43.7 | > 100 |  | 7.52 | 24.8 | > 100 | 8.67 | > 100 | 51.3 | 10.5 | > 100 | > 100 | 11.3 | 10.1 | > 100 |  | > 100 | 33.2 |  | 48.6 |
| COc1ccc(/C=C/C(=N/NC(=O)N/N=C(/C=C/c2ccc(OC)cc2)C(C)(C)CN2CCCCC2)C(C)(C)CN2CCCCC2)cc1 | 3.73 | > 10 | 7.06 | 3.22 | 3.11 | 5.77 | 2.82 | 3.12 | 3.42 | 3.06 | 4.33 | 3.4 | 6.62 | 2.72 |  | 3.1 | 3.49 | 2.89 | 3.31 | 2.95 |
| COc1cc(OC)c2c(=O)c(OC)c(-c3ccc4c(c3)OCO4)oc2c1OC | > 100 | > 100 | > 100 | 40.4 | > 100 | > 100 | > 100 | > 100 | > 100 | > 100 | > 100 | > 100 | > 100 | > 100 | > 100 | > 100 | > 100 | > 100 | > 100 | > 100 |
| COC(=O)C1(C(=O)OC)N=C(C)OC1c1ccccn1 (configuration not stated) | > 100 | > 100 | > 100 | > 100 |  | > 100 | > 100 | > 100 |  | > 100 | > 100 | > 100 | > 100 | > 100 |  | > 100 | > 100 | > 100 | > 100 | > 100 |
| NC(=O)C(=CNC(=S)Nc1ccc(Cl)c(Cl)c1)C(N)=O | > 100 | > 100 | > 100 | > 100 | > 100 | > 100 | > 100 | > 100 | > 100 | > 100 | > 100 | > 100 | > 100 | > 95.7 | > 100 | > 100 | > 100 | > 100 | > 100 | > 73.6 |
| COC(CC1(/C=C/O[Si](C(C)C)(C(C)C)C(C)C)C(=O)N(COCC[Si](C)(C)C)c2ccccc21)OC (configuration not stated) | > 100 | > 100 | > 100 |  | > 100 | 59.9 | 52.9 | > 100 |  | > 100 | > 100 | > 100 | 85.2 | 29.5 | 38.4 | 26.8 | 51.2 | > 100 | > 100 | > 100 |
| Cc1cc(=O)[nH]c2cc(NC(=O)C(CCCN=C(N)N)NC(=O)OCc3ccccc3)ccc12 (configuration not stated) | > 100 | > 100 | > 100 | > 100 | > 100 | > 100 | > 100 | > 100 | > 100 | > 100 | > 100 | > 100 | > 100 |  | > 100 | > 100 | 25.6 | > 100 | > 100 | > 100 |
| COC(=O)C(Cc1ccccc1)NP(=O)(O)OCC1OC(n2cc(I)c(=O)[nH]c2=O)CC1O (configuration not stated) | > 100 | > 100 | > 100 | > 100 | > 100 | > 100 | > 100 | > 100 | > 100 | > 100 | > 100 | > 100 | > 100 |  | > 100 |  | > 100 | > 100 | > 100 | > 100 |
| COc1cccc(C2ON=C(c3ccccc3)N2C23CC4CC(CC(C4)C2)C3)c1 (configuration not stated) | > 10 | > 10 | > 10 | > 10 | > 10 | > 10 | > 10 | > 10 | > 10 | > 10 | > 10 | > 10 | > 10 | > 10 | > 10 | > 10 | > 10 | > 10 | > 10 |  |
| O=C(Nc1nc(C23CC4CC(CC(C4)C2)C3)cs1)c1cc2cc(Cl)ccc2oc1=O | > 100 | > 100 | > 100 | > 100 | > 100 | > 100 | > 100 |  | > 100 | > 100 | > 100 | > 100 | > 100 | > 100 |  |  |  | > 100 | > 100 | > 100 |
| C=CCc1cc(C=C(C#N)C#N)cc(OC)c1O | > 100 | > 100 | > 100 | 89.1 | > 100 | > 100 | > 100 | > 100 | > 100 | > 100 | > 100 | > 100 | > 100 | > 100 |  | > 100 | > 100 | > 100 | > 100 | > 100 |

— PubChem BioAssay (NCI)
